The target in test [1] is T1, CcSHMT1 (Erigeron canadensis, UniProt A0A8M0FGR5).
T1 construct: total CDS (1539 bp); homology model is a tetramer
T1 sequence (A0A8M0FGR5 1-513): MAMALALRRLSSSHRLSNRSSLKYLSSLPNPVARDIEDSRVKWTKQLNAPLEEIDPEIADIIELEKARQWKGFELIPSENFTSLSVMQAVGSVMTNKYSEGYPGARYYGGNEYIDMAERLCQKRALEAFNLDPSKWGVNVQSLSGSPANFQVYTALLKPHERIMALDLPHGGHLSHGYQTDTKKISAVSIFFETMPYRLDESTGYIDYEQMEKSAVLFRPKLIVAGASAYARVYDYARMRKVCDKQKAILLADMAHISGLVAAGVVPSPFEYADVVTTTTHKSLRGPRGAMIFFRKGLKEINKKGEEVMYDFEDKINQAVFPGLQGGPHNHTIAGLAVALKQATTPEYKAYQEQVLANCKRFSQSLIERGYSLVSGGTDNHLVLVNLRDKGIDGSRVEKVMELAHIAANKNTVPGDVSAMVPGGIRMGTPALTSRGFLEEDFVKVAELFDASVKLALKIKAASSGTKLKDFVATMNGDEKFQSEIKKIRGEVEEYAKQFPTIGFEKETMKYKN
The test can be described thus: microscale thermophoresis (MST). It counts as binding.

Test [2] deals with T1, CcSHMT1. The test can be described thus: SHMT activity by benzaldehyde production from DL-β-phenylserine. The following applies: competitive versus DL-β-phenylserine; CAP 0.63-44.23 μM, assayed 0.5 h after CAP addition. It is filed as biochemical.
The target of test [3] is T2, CcSHMT1 (Erigeron canadensis, UniProt A0A8M0FGR5, A187T).
T2 construct: total CDS (1539 bp); homology model is a tetramer
T2 sequence (A0A8M0FGR5 1-513 A187T): T1 sequence (A0A8M0FGR5 1-513)
Briefly: microscale thermophoresis (MST). It counts as binding.

The target in test [4] is T3, CcSHMT1 (Erigeron canadensis, UniProt A0A8M0FGR5, S186A).
T3 construct: total CDS (1539 bp)
T3 sequence (A0A8M0FGR5 1-513 S186A): T1 sequence (A0A8M0FGR5 1-513)
The test can be described thus: microscale thermophoresis (MST). It is filed as binding.

In test [5] the target is T4, CcSHMT1 (Erigeron canadensis, UniProt A0A8M0FGR5, V188L).
T4 construct: total CDS (1539 bp)
T4 sequence (A0A8M0FGR5 1-513 V188L): T1 sequence (A0A8M0FGR5 1-513)
The test can be described thus: microscale thermophoresis (MST). It counts as binding.

Where two headings read alike, the source gives them in different places.

As to `CCCCCCCC(=O)O` [Caprylic acid], the Kd at CcSHMT1 [1] (read-out: Kd) amounted to 12.3 µM; on CcSHMT1 [3], 51.9 µM; on CcSHMT1 [4], 15.5 µM; on CcSHMT1 [5], 28 µM. Besides, the IC50 at CcSHMT1 [2] stood at 23.1 µM.
Consider `COc1cc(C(=O)O)ccc1O` [Vanillic acid, reference compound], for which, on CcSHMT1 [1] (negative control, bound is the highest concentration tested, not a printed Kd, read-out: no binding up to 50 μM), the Kd was over 50 µM.

(Values after paper doi:10.1101/2023.12.12.571245v1, “Serine hydroxymethyl transferase is a binding target of caprylic acid: Uncovering a novel molecular target for a herbicide and for producing caprylic acid-tolerant crops” (biorxiv, 2023).)
